From the supplement of paper PMC10307832

What was measured:
Assay in all cases: relative viability (nuclei count vs DMSO), 5 days (fraction); higher = more cells survive
Ispinesib + Linsitinib = compound: Cc1ccc(C(=O)N(CCCN)[C@@H](c2nc3cc(Cl)ccc3c(=O)n2Cc2ccccc2)C(C)C)cc1 [Ispinesib] + C[C@]1(O)C[C@@H](c2nc(-c3ccc4ccc(-c5ccccc5)nc4c3)c3c(N)nccn32)C1 [Linsitinib] (partner 1 µM)
Procedure, shortened: (§1)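 Relative viability equals treated-well nuclei counts divided by vehicle-well nuclei counts. Counts came from 4× images of lung cancer cell lines grown in 1536-well plates for 5 days after pin-tool dosing on the day after seeding. Dosing used one drug alone or a fixed anchor-drug dose plus five library-drug doses (not always all listed) in √10 steps, and values are medians of duplicate plates.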

Linsitinib + Luminespib = compound: C[C@]1(O)C[C@@H](c2nc(-c3ccc4ccc(-c5ccccc5)nc4c3)c3c(N)nccn32)C1 [Linsitinib] + CCNC(=O)c1noc(-c2cc(C(C)C)c(O)cc2O)c1-c1ccc(CN2CCOCC2)cc1 [Luminespib] (partner 0.01 µM)
Procedure, shortened: as §1

Linsitinib + Olaparib = compound: C[C@]1(O)C[C@@H](c2nc(-c3ccc4ccc(-c5ccccc5)nc4c3)c3c(N)nccn32)C1 [Linsitinib] + O=C(c1cc(Cc2n[nH]c(=O)c3ccccc23)ccc1F)N1CCN(C(=O)C2CC2)CC1 [Olaparib] (partner 8 µM)
Procedure, shortened: as §1

Ispinesib + Decitabine = compound: Cc1ccc(C(=O)N(CCCN)[C@@H](c2nc3cc(Cl)ccc3c(=O)n2Cc2ccccc2)C(C)C)cc1 [Ispinesib] + Nc1ncn([C@H]2C[C@H](O)[C@@H](CO)O2)c(=O)n1 [Decitabine] (partner 2 µM)
Procedure, shortened: as §1

Question: UMC-11 was tested. Which relative viability (Ispinesib + Linsitinib; first compound 0.001 µM) did it give?
Answer: Its relative viability is 1.06.

Question: What about the relative viability (Ispinesib + Linsitinib; first compound 0.003162 µM) of the same cell line?
Answer: Its relative viability is 1.05.

Question: What about the relative viability (Ispinesib + Linsitinib; first compound 0.01 µM) of the same cell line?
Answer: Its relative viability is 1.05.

Question: And the relative viability (Ispinesib + Linsitinib; first compound 0.03162 µM)?
Answer: The relative viability was 0.449.

Question: What about the relative viability (Ispinesib + Linsitinib; first compound 0.1 µM) of the same cell line?
Answer: The relative viability was 0.244.

Question: And the relative viability (Linsitinib + Luminespib; first compound 0.01 µM)?
Answer: The relative viability was 1.04.

Question: What about the relative viability (Linsitinib + Luminespib; first compound 0.03162 µM) of the same cell line?
Answer: Its relative viability is 0.717.

Question: And the relative viability (Linsitinib + Luminespib; first compound 0.1 µM)?
Answer: The relative viability was 0.992.

Question: And the relative viability (Linsitinib + Luminespib; first compound 1 µM)?
Answer: The relative viability was 1.02.

Question: And the relative viability (Linsitinib + Olaparib; first compound 0.01 µM)?
Answer: The relative viability was 0.361.

Question: And the relative viability (Linsitinib + Olaparib; first compound 0.03162 µM)?
Answer: The relative viability was 0.352.

Question: And the relative viability (Linsitinib + Olaparib; first compound 0.1 µM)?
Answer: The relative viability was 0.421.

Question: And the relative viability (Linsitinib + Olaparib; first compound 0.3162 µM)?
Answer: The relative viability was 0.273.

Question: What about the relative viability (Linsitinib + Olaparib; first compound 1 µM) of the same cell line?
Answer: The relative viability was 0.329.

Question: What about the relative viability (Ispinesib + Decitabine; first compound 0.001 µM) of the same cell line?
Answer: Its relative viability is 0.67.

Question: What about the relative viability (Ispinesib + Decitabine; first compound 0.003162 µM) of the same cell line?
Answer: The relative viability was 0.904.

Question: What about the relative viability (Ispinesib + Decitabine; first compound 0.01 µM) of the same cell line?
Answer: Its relative viability is 0.583.

Question: And the relative viability (Ispinesib + Decitabine; first compound 0.03162 µM)?
Answer: Its relative viability is 0.28.

Question: What about the relative viability (Ispinesib + Decitabine; first compound 0.1 µM) of the same cell line?
Answer: The relative viability was 0.23.
